Measured values published in patent US12168044B2, “Peptides and combination of peptides for use in immunotherapy against non-small cell lung cancer and other cancers” (priority 2016, dated 2024).
Each block holds one molecule with its values, some of them ahead of it.

Tests used:
[1] = test system: T-cells of healthy donors; experiment: Immunogenicity and functional T-cell data (Example 6); type: cell-based, human
Procedure: The immunogenicity of MAG-003 was tested using protocols that mimic the manufacturing procedure for a pharmaceutical product.

[2] = target: HLA-A*02:01 (Homo sapiens, UniProt P04439, D140Y/D185E/D98H/E176V/E277Q/G131W/G231S/I119V/I121R/I166T/I218V/L300P/L318F/N151K/N90K/P208A/P217A/Q86G/Q94H/R138H/R169H/T345S); experiment: Binding to HLA-A*02:01 (additional data, Example 6)
[3] = target: HLA-A*0201 molecule (Homo sapiens, UniProt P04439, D140Y/D185E/D98H/E176V/E277Q/G131W/G231S/I119V/I121R/I166T/I218V/L300P/L318F/N151K/N90K/P208A/P217A/Q86G/Q94H/R138H/R169H/T345S); details: Wu et al. 2011; cited from earlier work
[4] = test system: HLA-A*0201-positive PBMCs; details: cited from earlier work
[5] = test system: HLA-A*0201/Kb transgenic mice; details: cited from earlier work
[6] = test system: advanced esophageal, stomach or lung cancer; details: of 15 patients who completed one vaccination cycle; cited from earlier work

binding to HLA-A*02:01 [2]: very good binding
Molecule: KVLEHVVRV (listed as Homo sapiens) [MAG-003]
killing of peptide loaded target cells by generated T cells [1]: able to kill peptide loaded target cells
priming of peptide-specific T-cells ([1]; healthy donors, protocols mimicking manufacturing procedure): Priming of MAG-003-specific T-cells was observed
binding affinity and stability towards HLA-A*0201 molecule [3]: potent binding affinity and stability
lysis of target cells by the induced CTLs ([4]; Jia et al. 2010): lyse target cells in an HLA-A*0201-restricted fashion
elicitation of peptide-specific CTLs ([4]; in vitro from HLA-A*0201-positive PBMCs, Jia et al. 2010): elicits peptide-specific CTLs
elicitation of peptide-specific CTLs ([5]; HLA-A*0201/Kb transgenic mice, Jia et al. 2010): elicits peptide-specific CTLs

Molecule: p286-1Y2L9L: MAG-003 variant having 3 amino acid substitutions, printed as SEQ ID NO:3 (KVLEHVVRA; listed as Homo sapiens)
binding affinity and stability towards HLA-A*0201 molecule [3]: potent binding affinity and stability
induction of specific CTLs that lyse target cancer cells ([4]; PBMCs of healthy donors, Wu et al. 2011): capability to induce specific CTLs
induction of specific CTLs that lyse target cancer cells ([5]; HLA-A2.1/Kb transgenic mice, Wu et al. 2011): capability to induce specific CTLs

Molecule: p286-1Y2L: MAG-003 variant having 2 amino acid substitutions, printed as SEQ ID NO:2 (KVLEHVVRL; listed as Homo sapiens)
binding affinity and stability towards HLA-A*0201 molecule [3]: potent binding affinity and stability

B1: MAGEA4 vaccine: MAGEA4 vaccine containing protein, given subcutaneously once every 2 weeks in six doses (Saito et al., 2014) (protein, UniProt P43358 1-317, looked up)
Melanoma-associated antigen 4: MSSEQKSQHCKPEEGVEAQEEALGLVGAQAPTTEEQEAAVSSSSPLVPGTLEEVPAAESAGPPQSPQGASALPTTISFTCWRQPNEGSSSQEEEGPSTSPDAESLFREALSNKVDELAHFLLRKYRAKELVTKAEMLERVIKNYKRCFPVIFGKASESLKMIFGIDVKEVDPASNTYTLVTCLGLSYDGLLGNNQIFPKTGLLIIVLGTIAMEGDSASEEEIWEELGVMGVYDGREHTVYGEPRKLLTQDWVQENYLEYRQVPGSNPARYEFLWGPRALAETSYVKVLEHVVRVNARVRIAYPSLREAALLEEEEGV
modifications: vaccine formulation
patients with CD4 T-cell response [6]: three
patients with CD8 T-cell response [6]: six
patients with MAGEA4-specific humoral response [6]: four
